Key:
Format in all cases: physicochemical
[1] = Kinetics of fluorination of boron compound with KHF2; settings: 100 mM Acetic acid at pH 3.5
Excerpt: Prior to ^18F-labeling of the final DNA compound or other boron-based fluoride acceptors, dilute labeling conditions were developed for 4-(4,4,5,5-Tetramethyl-1,3,2-dioxaborolan-2-yl) aniline with cold ^19F and the expectation that these labeling conditions can be extrapolated onto ^18F studies. […]

[2] = Spectroscopic study of protecting group hydrolysis rate; settings: 200 mM Acetic acid at pH 3.5, 2 mM boron compound, 20 mM KHF2
Experimental: Prior to ^18F-labeling of the final DNA compound or other boron-based fluoride acceptors, dilute labeling conditions were developed for 4-(4,4,5,5-Tetramethyl-1,3,2-dioxaborolan-2-yl) aniline with cold ^19F and the expectation that these labeling conditions can be extrapolated onto ^18F studies. The general conditions established are as follows: 200 mM Acetic acid at pH 3.5, with 2 mM boron compound, and 20 mM KHF2.

[3] = 19F NMR stability of B-F bond with 20 mM boric acid chase or in presence of boric acid; settings: 20 mM boric acid chase (chase at 1 h, NMR at 2 h) or fluorination in presence of 20 mM boric acid
Experimental: Fluorination after a 20 mM boric acid chase (chase at 1 h, NMR taken at 2 h): ^19F NMR (300 MHz, D2O, TFA ref) δ −50.23 (fluorine-boric acid species #1), δ−53.89 (KHF2), δ −62.3 (fluorine-boric acid species #2), δ −66.30 (s, φBF3). Fluorination in the presence of boric acid: ^19F NMR (300 MHz, D2O, TFA ref) δ −50.02 (fluorine-boric acid species #1), δ −52.47 (KHF2), δ −62.0 (fluorine-boric acid species #2), δ −65.65 (s, φBF3).

Structure (SMILES)	rate of fluorination [1] [min⁻¹]	protecting group hydrolysis rate [2] [min⁻¹]	stability of B—F bond (persistence of 19F NMR peak near δ −66) [3]
CC1(C)OB(c2ccc(N)cc2)OC1(C)C [4-(4,4,5,5-Tetramethyl-1,3,2-dioxaborolan-2-yl) aniline]	2.8 ± 0.3	0.66 ± 0.04	–
[NH3+]c1ccc([B-](F)(F)F)cc1 [φBF3, 4-Ammoniumphenyl Trifluoroborate]	–	–	stable

Source: patent US8114381B2, “Radiolabeled compounds and compositions, their precursors and methods for their production” (The University of British Columbia, priority 2004, dated 2012)
